In patent publication US7704995B2 (Exelixis, Inc., priority 2003, dated 2010):

Biological target: T1, Chk1 (Homo sapiens, UniProt O14757)
T1 construct: purchased Upstate Biotechnology
T1 sequence (O14757 1-476): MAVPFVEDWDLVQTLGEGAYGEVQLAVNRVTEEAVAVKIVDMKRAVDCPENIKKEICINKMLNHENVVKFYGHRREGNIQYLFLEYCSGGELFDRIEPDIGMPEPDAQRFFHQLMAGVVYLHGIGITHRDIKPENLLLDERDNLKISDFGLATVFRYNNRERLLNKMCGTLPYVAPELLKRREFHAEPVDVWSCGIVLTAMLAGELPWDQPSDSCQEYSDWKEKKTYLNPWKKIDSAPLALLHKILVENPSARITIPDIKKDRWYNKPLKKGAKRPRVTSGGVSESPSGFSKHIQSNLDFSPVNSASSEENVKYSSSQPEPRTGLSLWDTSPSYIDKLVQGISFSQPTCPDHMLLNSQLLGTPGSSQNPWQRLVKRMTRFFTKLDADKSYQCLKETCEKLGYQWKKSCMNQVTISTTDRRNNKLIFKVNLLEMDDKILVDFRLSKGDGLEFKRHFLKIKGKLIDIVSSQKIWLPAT
Experiment: Chk1 kinase assay: incorporation of γ-33P ATP into immobilized myelin basic protein
Type: biochemical
Conditions: read-out: Chk1 IC50
Procedure, shortened: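 Incorporation of γ-33P into myelin basic protein coated on plates was scintillation-counted after 1 h at room temperature, duplicate points. Unlabeled ATP was 10 μM with 10 nM Chk1, 30 μM with 20 nM Chk2; buffer Hepes pH 7.6, MgCl2, DTT, 1% DMSO. Output IC50, optionally converted to Ki.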

Structure (SMILES) | IC50 [µM]
CNC(=O)c1nc(-c2cccc(NC(=O)c3cccc(Oc4ccccc4)c3)c2)cnc1N [Example 156, 3-amino-N-methyl-6-[3-({[3-(phenyloxy)phenyl]carbonyl}amino)phenyl]pyrazine-2-carboxamide] | 0.05 to 1
CNC(=O)c1nc(-c2cccc(NC(=O)C(c3ccccc3)c3ccccc3)c2)cnc1N [Example 157, 3-amino-6-{3-[(diphenylacetyl)amino]phenyl}-N-methylpyrazine-2-carboxamide] | 0.05 to 1
CNC(=O)c1nc(-c2cccc(NC(=O)Cc3ccccc3)c2)cnc1N [Example 158, 3-amino-N-methyl-6-{3-[(phenylacetyl)amino]phenyl}pyrazine-2-carboxamide] | 0.05 to 1
CNC(=O)c1nc(-c2cccc(NC(=O)CCc3ccccc3)c2)cnc1N [Example 159, 3-amino-N-methyl-6-{3-[(3-phenylpropanoyl)amino]phenyl}pyrazine-2-carboxamide] | 0.05 to 1
CNC(=O)c1nc(-c2cccc(C(=O)N[C@@H]3CCCc4ccccc43)c2)cnc1N [Example 160, 3-amino-N-methyl-6-(3-{[(1R)-1,2,3,4-tetrahydronaphthalen-1-ylamino]carbonyl}phenyl)pyrazine-2-carboxamide] | 1 to 10
CNC(=O)c1nc(-c2cccc(C(=O)N[C@H]3CCCc4ccccc43)c2)cnc1N [Example 161, 3-amino-N-methyl-6-(3-{[(1S)-1,2,3,4-tetrahydronaphthalen-1-ylamino]carbonyl}phenyl)pyrazine-2-carboxamide] | 0.05 to 1
CNC(=O)c1nc(-c2cccc(C(=O)NCc3cc(OC)c(OC)c(OC)c3)c2)cnc1N [Example 162, 3-amino-N-methyl-6-{3-[({[3,4,5-tris(methyloxy)phenyl]methyl}amino)carbonyl]phenyl}pyrazine-2-carboxamide] | 0.05 to 1
CNC(=O)c1nc(-c2cccc(C(=O)N[C@@H]3CCC[C@H]3OCc3ccccc3)c2)cnc1N [Example 163, 3-amino-N-methyl-6-{3-[({(1R,2R)-2-[(phenylmethyl)oxy]cyclopentyl}amino)carbonyl]phenyl}pyrazine-2-carboxamide] | 1 to 10
CNC(=O)c1nc(-c2cccc(C(=O)N[C@H]3CCC[C@@H]3OCc3ccccc3)c2)cnc1N [Example 164, 3-amino-N-methyl-6-{3-[({(1S,2S)-2-[(phenylmethyl)oxy]cyclopentyl}amino)carbonyl]phenyl}pyrazine-2-carboxamide] | 0.05 to 1
CNC(=O)c1nc(-c2cccc(C#N)c2)cnc1N [Example 165, 3-amino-6-(3-cyanophenyl)-N-methylpyrazine-2-carboxamide] | 1 to 10
CNC(=O)c1nc(-c2cccc(NC(=O)C3CCCC3)c2)cnc1N [Example 166, 3-amino-6-{3-[(cyclopentylcarbonyl)amino]phenyl}-N-methylpyrazine-2-carboxamide] | 0.05 to 1
CNC(=O)c1nc(-c2cccc(NC(=O)c3ccc(C#N)cc3)c2)cnc1N [Example 167, 3-amino-6-(3-{[(4-cyanophenyl)carbonyl]amino}phenyl)-N-methylpyrazine-2-carboxamide] | 0.05 to 1
CNC(=O)c1nc(-c2cccc(NC(=O)NCc3ccccc3)c2)cnc1N [Example 168, 3-amino-N-methyl-6-[3-({[(phenylmethyl)amino]carbonyl}amino)phenyl]pyrazine-2-carboxamide] | 0.05 to 1
CNC(=O)c1nc(-c2cccc(C(=O)NCc3ccc4ccccc4c3)c2)cnc1N [Example 169, 3-amino-N-methyl-6-(3-{[(naphthalen-2-ylmethyl)amino]carbonyl}phenyl)pyrazine-2-carboxamide] | 0.05 to 1
CNC(=O)c1nc(-c2cccc(C(=O)NCC3CCCO3)c2)cnc1N (stereo not drawn) [Example 170, 3-amino-N-methyl-6-(3-{[(tetrahydrofuran-2-ylmethyl)amino]carbonyl}phenyl)pyrazine-2-carboxamide] | 1 to 10
CNC(=O)c1nc(-c2cccc(C(=O)NCc3c(F)cccc3Cl)c2)cnc1N [Example 171, 3-amino-6-[3-({[(2-chloro-6-fluorophenyl)methyl]amino}carbonyl)phenyl]-N-methylpyrazine-2-carboxamide] | 0.05 to 1
CNC(=O)c1nc(-c2cccc(C(=O)NCc3cc(F)cc(C(F)(F)F)c3)c2)cnc1N [Example 172, 3-amino-6-{3-[({[3-fluoro-5-(trifluoromethyl)phenyl]methyl}amino)carbonyl]phenyl}-N-methylpyrazine-2-carboxamide] | 0.05 to 1
CNC(=O)c1nc(-c2cccc(C(=O)NCCc3cc(OC)cc(OC)c3)c2)cnc1N [Example 173, 3-amino-6-{3-[({2-[3,5-bis(methyloxy)phenyl]ethyl}amino)carbonyl]phenyl}-N-methylpyrazine-2-carboxamide] | 1 to 10

Structure (SMILES) | IC50 [µM]
CNC(=O)c1nc(-c2cccc(OCCc3ccccc3)c2)cnc1N [Example 174, 3-amino-N-methyl-6-{3-[(2-phenylethyl)oxy]phenyl}pyrazine-2-carboxamide] | 0.05 to 1
CNC(=O)c1nc(-c2cccc(OCCN3CCC(C)CC3)c2)cnc1N [Example 175, 3-amino-N-methyl-6-(3-{[2-(4-methylpiperidin-1-yl)ethyl]oxy}phenyl)pyrazine-2-carboxamide] | 1 to 10
CNC(=O)c1nc(-c2cccc(OCCN3CCC(CCO)CC3)c2)cnc1N [Example 176, 3-amino-6-[3-({2-[4-(2-hydroxyethyl)piperidin-1-yl]ethyl}oxy)phenyl]-N-methylpyrazine-2-carboxamide] | 1 to 10
CNC(=O)c1nc(-c2cccc(OCCN3CCC(O)C3)c2)cnc1N (stereo not drawn) [Example 177, 3-amino-6-(3-{[2-(3-hydroxypyrrolidin-1-yl)ethyl]oxy}phenyl)-N-methylpyrazine-2-carboxamide] | 1 to 10
CCN(CCOc1cccc(-c2cnc(N)c(C(=O)NC)n2)c1)Cc1ccccc1 [Example 178, 3-amino-6-[3-({2-[ethyl(phenylmethyl)amino]ethyl}oxy)phenyl]-N-methylpyrazine-2-carboxamide] | 0.05 to 1
CCN(CC)CCOc1cccc(-c2cnc(N)c(C(=O)NC)n2)c1 [Example 179, 3-amino-6-(3-{[2-(diethylamino)ethyl]oxy}phenyl)-N-methylpyrazine-2-carboxamide] | 0.05 to 1
CNC(=O)c1nc(-c2cccc(C(=O)NCc3ccccc3-c3ccccc3)c2)cnc1N [Example 180, 3-amino-6-(3-{[(biphenyl-2-ylmethyl)amino]carbonyl}phenyl)-N-methylpyrazine-2-carboxamide] | < 0.05
CNC(=O)c1nc(-c2cccc(OCCN3CCN(c4ccccc4)CC3)c2)cnc1N [Example 181, 3-amino-N-methyl-6-(3-{[2-(4-phenylpiperazin-1-yl)ethyl]oxy}phenyl)pyrazine-2-carboxamide] | 0.05 to 1
CNC(=O)c1nc(-c2cccc(C(=O)NCc3ccc(-c4ccccc4)cc3)c2)cnc1N [Example 182, 3-amino-6-(3-{[(biphenyl-4-ylmethyl)amino]carbonyl}phenyl)-N-methylpyrazine-2-carboxamide] | < 0.05
CNC(=O)c1nc(-c2cccc(OCCN(C)Cc3ccccc3)c2)cnc1N [Example 183, 3-amino-N-methyl-6-[3-({2-[methyl(phenylmethyl)amino]ethyl}oxy)phenyl]pyrazine-2-carboxamide] | 0.05 to 1
CNC(=O)c1nc(-c2cccc(C(=O)NCc3ccc(Oc4ccccc4)cc3)c2)cnc1N [Example 184, 3-amino-N-methyl-6-{3-[({[4-(phenyloxy)phenyl]methyl}amino)carbonyl]phenyl}pyrazine-2-carboxamide] | 0.05 to 1
CNC(=O)c1nc(-c2cccc(OCCN3CCOCC3)c2)cnc1N [Example 185, 3-amino-N-methyl-6-{3-[(2-morpholin-4-ylethyl)oxy]phenyl}pyrazine-2-carboxamide] | 1 to 10
CCCN(CCOc1cccc(-c2cnc(N)c(C(=O)NC)n2)c1)CC1CC1 [Example 186, 3-amino-6-[3-({2-[(cyclopropylmethyl)(propyl)amino]ethyl}oxy)phenyl]-N-methylpyrazine-2-carboxamide] | 0.05 to 1
CNC(=O)c1nc(-c2cccc(OCCN3CCC(Cc4ccccc4)CC3)c2)cnc1N [Example 187, 3-amino-N-methyl-6-[3-({2-[4-(phenylmethyl)piperidin-1-yl]ethyl}oxy)phenyl]pyrazine-2-carboxamide] | 0.05 to 1
CNC(=O)c1nc(-c2cccc(OCCN3CCCCC3)c2)cnc1N [Example 188, 3-amino-N-methyl-6-{3-[(2-piperidin-1-ylethyl)oxy]phenyl}pyrazine-2-carboxamide] | 0.05 to 1
CNC(=O)c1nc(-c2cccc(C(=O)NCc3cccc(Oc4ccccc4)c3)c2)cnc1N [Example 189, 3-amino-N-methyl-6-{3-[({[3-(phenyloxy)phenyl]methyl}amino)carbonyl]phenyl}pyrazine-2-carboxamide] | 0.05 to 1
CCN1CCN(CCOc2cccc(-c3cnc(N)c(C(=O)NC)n3)c2)CC1 [Example 190, 3-amino-6-(3-{[2-(4-ethylpiperazin-1-yl)ethyl]oxy}phenyl)-N-methylpyrazine-2-carboxamide] | 0.05 to 1
CNC(=O)c1nc(-c2cccc(OCCN3CCCC3)c2)cnc1N [Example 191, 3-amino-N-methyl-6-{3-[(2-pyrrolidin-1-ylethyl)oxy]phenyl}pyrazine-2-carboxamide] | 0.05 to 1
